The source of these data is ChEMBL document CHEMBL3091310, “Pseudo-cyclization through intramolecular hydrogen bond enables discovery of pyridine substituted pyrimidines as new Mer kinase inhibitors” (J Med Chem, 2013).

Broadly, the IC50 is the concentration that gives 50% inhibition. Low values mean higher potency, high ones lower potency. Broadly, the Cmax is the peak of the concentration-time curve. For orientation: half-life means the time in which the quantity being followed falls by half. Lower therefore signals fast loss. A word on the Vd: it is the apparent volume that relates the amount in the body to the concentration in plasma or blood. As a reminder, the Tmax is the time at which the peak concentration occurs. The clearance is the volume of plasma or blood freed of the substance per unit of time. By AUC(0-t) is commonly meant exposure summed from dosing to a finite time, without extrapolation to infinity. Higher therefore signals more exposure.

Data set [1] addresses T1, Tyrosine-protein kinase receptor UFO (Homo sapiens, UniProt P30530).
T1 sequence (P30530 whole entry): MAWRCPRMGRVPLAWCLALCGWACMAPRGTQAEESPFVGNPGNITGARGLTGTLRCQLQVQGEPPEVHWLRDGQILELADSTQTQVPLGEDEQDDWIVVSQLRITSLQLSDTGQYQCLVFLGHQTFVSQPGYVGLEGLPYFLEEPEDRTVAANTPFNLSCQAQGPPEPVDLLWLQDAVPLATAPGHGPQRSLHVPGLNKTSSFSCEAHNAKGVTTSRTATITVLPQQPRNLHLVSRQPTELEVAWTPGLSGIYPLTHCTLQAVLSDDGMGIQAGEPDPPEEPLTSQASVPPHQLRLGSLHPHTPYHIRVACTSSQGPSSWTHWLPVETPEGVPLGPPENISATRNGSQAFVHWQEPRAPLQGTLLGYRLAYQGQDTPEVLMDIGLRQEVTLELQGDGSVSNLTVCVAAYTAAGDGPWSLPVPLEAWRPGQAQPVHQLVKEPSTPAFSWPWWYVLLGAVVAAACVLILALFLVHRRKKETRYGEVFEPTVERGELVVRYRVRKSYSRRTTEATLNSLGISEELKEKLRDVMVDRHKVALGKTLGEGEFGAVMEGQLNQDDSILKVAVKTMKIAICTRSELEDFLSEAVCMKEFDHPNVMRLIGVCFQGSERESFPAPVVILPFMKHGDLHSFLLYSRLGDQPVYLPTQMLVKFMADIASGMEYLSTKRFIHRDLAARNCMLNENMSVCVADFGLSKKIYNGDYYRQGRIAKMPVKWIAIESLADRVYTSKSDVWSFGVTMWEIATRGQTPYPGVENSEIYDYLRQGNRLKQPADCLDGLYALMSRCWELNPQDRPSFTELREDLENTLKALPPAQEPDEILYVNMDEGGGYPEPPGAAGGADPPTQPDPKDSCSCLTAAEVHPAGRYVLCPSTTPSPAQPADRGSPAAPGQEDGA

In data set [2] the target is T2, Tyrosine-protein kinase receptor TYRO3 (Homo sapiens, UniProt Q06418).
T2 sequence (Q06418 whole entry): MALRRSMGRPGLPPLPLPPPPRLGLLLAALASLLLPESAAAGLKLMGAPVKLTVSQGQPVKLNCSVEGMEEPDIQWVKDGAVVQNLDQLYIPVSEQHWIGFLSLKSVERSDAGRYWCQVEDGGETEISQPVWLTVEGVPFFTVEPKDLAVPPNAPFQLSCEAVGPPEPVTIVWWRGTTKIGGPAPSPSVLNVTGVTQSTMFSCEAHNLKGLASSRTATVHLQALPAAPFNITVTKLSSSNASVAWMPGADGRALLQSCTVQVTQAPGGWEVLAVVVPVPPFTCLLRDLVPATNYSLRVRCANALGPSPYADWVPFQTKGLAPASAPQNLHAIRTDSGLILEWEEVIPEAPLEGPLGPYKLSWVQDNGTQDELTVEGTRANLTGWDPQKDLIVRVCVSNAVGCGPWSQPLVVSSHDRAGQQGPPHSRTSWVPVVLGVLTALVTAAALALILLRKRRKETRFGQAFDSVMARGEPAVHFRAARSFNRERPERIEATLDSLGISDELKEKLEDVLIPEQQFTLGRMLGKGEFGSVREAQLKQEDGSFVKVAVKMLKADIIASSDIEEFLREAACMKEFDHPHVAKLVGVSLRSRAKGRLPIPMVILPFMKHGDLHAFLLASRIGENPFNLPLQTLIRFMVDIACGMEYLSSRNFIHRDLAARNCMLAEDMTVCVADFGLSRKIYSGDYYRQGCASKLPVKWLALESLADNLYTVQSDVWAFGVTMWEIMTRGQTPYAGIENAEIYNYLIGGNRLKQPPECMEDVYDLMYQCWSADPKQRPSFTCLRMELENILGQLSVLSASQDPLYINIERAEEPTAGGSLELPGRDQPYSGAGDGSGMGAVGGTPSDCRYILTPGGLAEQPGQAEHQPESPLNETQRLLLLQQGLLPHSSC

Data set [3] is described as follows: in vivo. The following applies: mouse, iv, 3 mg/kg.
Data set [4] is filed under the species Mus musculus. The following applies: in vivo, po, 3 mg/kg.
Data set [5] is described as follows: in vivo. The following applies: mouse, iv, 3 mg/kg. The source holds these as a separate data set.
Data set [6] can be described thus: in vivo. The following applies: mouse, po, 3 mg/kg.
Data set [7] can be described thus: in vivo. As to conditions: mouse, iv, 3 mg/kg. The source holds these as a separate data set.
Data set [8] in a line: in vivo. As to conditions: mouse, po, 3 mg/kg. This is another data set of the same source.
Data set [9] is described as follows: in vivo. The following applies: mouse, iv, 3 mg/kg. This is another data set of the same source.
Data set [10] can be described thus: in vivo. The following applies: mouse, iv, 3 mg/kg. The source holds these as a separate data set.
Data set [11] is described as follows: in vivo. As to conditions: mouse, po, 3 mg/kg. This is another data set of the same source.

Turning to `CSc1ncc(-c2ccccn2)c(N[C@H]2CC[C@H](O)CC2)n1`, the IC50 in data set [1] and in [2] was above 30 µM each time.

In [1], `O[C@H]1CC[C@H](Nc2nc(NCc3ccccc3)ncc2-c2ccccn2)CC1` yielded an IC50 above 30 µM.

As for `CCCCNc1ncc(-c2ccc(CN3CCC(F)(F)CC3)cn2)c(N[C@H]2CC[C@H](O)CC2)n1`, the Cmax in data set [3] is 737 ng/mL; in [6], 71 ng/mL. The compound further had a F in data set [4] of 55%. Moreover, in [5], the half-life was 178 min. For the same compound, the Vd in data set [7] turned out to be 13.7 L/kg. The Tmax in data set [8] amounted to 15 min. The clearance in [9] worked out at 123 mL/min/kg. Further, the AUC(0-t) in data set [10] is 381 ng·h/mL; in data set [11] it was 210 ng·h/mL.

Consider `CCCCNc1ncc(-c2ccc(S(=O)(=O)N3CCOCC3)cn2)c(N[C@H]2CC[C@H](O)CC2)n1`, for which the Cmax in data set [3] turned out to be 1980 ng/mL; in [6] it was 13.9 ng/mL. The compound further returned a F in data set [4] of 1.3%. Besides, the half-life in [5] was 54.6 min. The compound also gave a Vd in data set [7] of 2.9 L/kg. For the same compound, the Tmax in data set [8] was 15 min. For the same compound, in data set [9], the clearance stood at 134 mL/min/kg. Besides, the exposure AUC(0-t) in data set [10] stood at 355 ng·h/mL; in data set [11], 4.68 ng·h/mL.

For the compound `CCCCNc1ncc(-c2ccc(CNC3CC3)cn2)c(N[C@H]2CC[C@H](O)CC2)n1`, the results for the maximum concentration (Cmax) in data set [3] and in [6] were 277 ng/mL and 33 ng/mL, respectively. Further, the F in data set [4] was 27%. In addition, the half-life in data set [5] is 283 min. For the same compound, in data set [7], the Vd is 39 L/kg. Besides, in [8], the time of peak concentration (Tmax) stood at 30 min. In data set [9], this compound had a clearance of 130 mL/min/kg. For the same compound, the figures for the AUC(0-t) in data set [10] and in [11] were 376 ng·h/mL and 103 ng·h/mL, respectively.

Consider `CCCCNc1ncc(-c2ccc(F)cc2)c(N[C@H]2CC[C@H](O)CC2)n1`, for which, in data set [2], the 50% inhibitory concentration (IC50) is above 30 µM.

Take `CCCCNc1nccc(N[C@H]2CC[C@H](O)CC2)n1`: the IC50 in [1] and in [2] was above 30 µM in each case.

Regarding `CCCCNc1ncc(-c2ccc(CN3CCOCC3)cn2)c(N[C@H]2CC[C@H](O)CC2)n1`, the Cmax stood at 1980 ng/mL in [3] and 162 ng/mL in data set [6]. The F in data set [4] was 23%. Further, in data set [5], the half-life was 95.4 min. For the same compound, the Vd in data set [7] amounted to 3.9 L/kg. For the same compound, the time to peak (Tmax) in data set [8] is 15 min. In data set [9], this compound gave a clearance of 62.2 mL/min/kg. Besides, the area under the curve AUC(0-t) in data set [10] is 794 ng·h/mL; in data set [11], 180 ng·h/mL.
